pIC50: −log10 of the molar value.
Tests used:
[1] = target: T1, Bifunctional epoxide hydrolase 2 (Homo sapiens) (UniProt P34913); assay: Inhibition of recombinant human sEH expressed in Escherichia coli assessed as inhibition of substrate PHOME hydrolysis to 6-methoxy-2-naphthaldehyde at 10 ug/ml after 5 mins by fluorescence assay
T1 sequence (whole entry): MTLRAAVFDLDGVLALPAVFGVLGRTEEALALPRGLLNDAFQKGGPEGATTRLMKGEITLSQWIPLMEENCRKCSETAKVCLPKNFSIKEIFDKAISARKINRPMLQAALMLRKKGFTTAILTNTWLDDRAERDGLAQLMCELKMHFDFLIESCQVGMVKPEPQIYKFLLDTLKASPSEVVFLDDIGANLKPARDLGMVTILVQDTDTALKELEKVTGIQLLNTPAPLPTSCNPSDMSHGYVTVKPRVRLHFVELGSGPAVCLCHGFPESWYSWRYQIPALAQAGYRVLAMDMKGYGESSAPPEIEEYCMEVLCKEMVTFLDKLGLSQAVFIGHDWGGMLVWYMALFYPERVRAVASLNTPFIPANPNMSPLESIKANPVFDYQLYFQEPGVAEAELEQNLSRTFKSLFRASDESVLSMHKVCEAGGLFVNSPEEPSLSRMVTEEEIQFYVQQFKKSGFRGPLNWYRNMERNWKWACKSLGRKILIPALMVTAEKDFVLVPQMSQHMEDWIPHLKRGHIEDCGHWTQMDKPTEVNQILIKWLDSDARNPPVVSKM

[2] = species: Mus musculus; assay: animal or person; conditions: Kunming, Ear, po, read-out: INH
Description: Antiinflammatory activity in Kunming mouse assessed as inhibition of xylene-induced ear edema at 150 mg/kg, po administered 45 mins prior to xylene challenge measured 15 mins post challenge

[3] = target: T2, Bifunctional epoxide hydrolase 2 (Homo sapiens, UniProt P34913)
T2 sequence (P34913 whole entry): T1 sequence (whole entry)
Description: Inhibition of recombinant human sEH expressed in Escherichia coli assessed as inhibition of substrate PHOME hydrolysis to 6-methoxy-2-naphthaldehyde after 5 mins by fluorescence assay

inhibition [1] [%] | Compound | inhibition in vivo at 150 mg/kg [2] [%] | pIC50 [3]
61 | O=c1[nH]c2c(O[C@@H]3O[C@H](CO)[C@H](O)[C@H](O)[C@H]3O)cccc2o1 | – | –
27.8 | O=C(Oc1cccc2oc(=O)[nH]c12)c1ccc(Cl)cc1 | – | –
28.1 | O=C(Oc1cccc2oc(=O)[nH]c12)c1ccc([N+](=O)[O-])cc1 | – | –
28 | O=C(Oc1cccc2oc(=O)[nH]c12)c1ccccc1 | – | –
31.6 | O=c1[nH]c2c(OS(=O)(=O)c3cccc([N+](=O)[O-])c3)cccc2o1 | – | –
25.3 | O=C(Oc1cccc2oc(=O)[nH]c12)c1cccc(Cl)c1 | – | –
28.8 | O=c1[nH]c2c(OS(=O)(=O)c3ccc([N+](=O)[O-])cc3)cccc2o1 | – | –
36.1 | O=c1[nH]c2c(OS(=O)(=O)c3ccccc3[N+](=O)[O-])cccc2o1 | – | –
26.2 | Cc1ccccc1C(=O)Oc1cccc2oc(=O)[nH]c12 | – | –
36 | O=c1[nH]c2c(OS(=O)(=O)c3ccccc3)cccc2o1 | – | –
29.2 | O=C(Oc1cccc2oc(=O)[nH]c12)c1ccccc1[N+](=O)[O-] | – | –
30.8 | O=C(Oc1cccc2oc(=O)[nH]c12)c1ccccc1Cl | – | –
28 | Cc1ccccc1S(=O)(=O)Oc1cccc2oc(=O)[nH]c12 | – | –
13.6 | O=c1[nH]c2c(OS(=O)(=O)c3ccc(Cl)cc3)cccc2o1 | – | –
24.5 | O=c1[nH]c2c(OS(=O)(=O)c3cccc(Cl)c3)cccc2o1 | – | –
92.9 | O=C(Oc1cccc2oc(=O)[nH]c12)c1cccc([N+](=O)[O-])c1 | – | 5.52
39.9 | Cc1ccc(S(=O)(=O)Oc2cccc3oc(=O)[nH]c23)cc1 | – | –
15.2 | O=c1[nH]c2c(OS(=O)(=O)c3ccccc3Cl)cccc2o1 | – | –
45.5 | O=c1[nH]c2c(O[C@@H]3O[C@H](CO)[C@@H](O)[C@H](O)[C@H]3O)cccc2o1 | – | –
98.3 | Cc1ccc(C(=O)Oc2cccc3oc(=O)[nH]c23)cc1 | – | 5.97
24.4 | Cc1cccc(C(=O)Oc2cccc3oc(=O)[nH]c23)c1 | – | –
30.9 | Cc1cccc(S(=O)(=O)Oc2cccc3oc(=O)[nH]c23)c1 | – | –

Compound | inhibition [1] [%] | inhibition in vivo at 150 mg/kg [2] [%] | pIC50 [3]
CC(C)(C)OC(=O)NCC(=O)Oc1cccc2oc(=O)[nH]c12 | 95.5 | 54.5 | 4.76
CC(C)C(NC(=O)OC(C)(C)C)C(=O)Oc1cccc2oc(=O)[nH]c12 (stereo not drawn) | 48 | 46.5 | –
CC(C)(C)OC(=O)NC(Cc1c[nH]c2ccccc12)C(=O)Oc1cccc2oc(=O)[nH]c12 (stereo not drawn) | 79.6 | 61 | –
CC(NC(=O)OC(C)(C)C)C(=O)Oc1cccc2oc(=O)[nH]c12 (stereo not drawn) | 95.7 | 40.7 | 4.79
CC(C)(C)OC(=O)NC(Cc1ccccc1)C(=O)Oc1cccc2oc(=O)[nH]c12 (stereo not drawn) | 90.8 | 64 | 5.57
CSCCC(NC(=O)OC(C)(C)C)C(=O)Oc1cccc2oc(=O)[nH]c12 (stereo not drawn) | 99.6 | 24.8 | 5.52
CC(C)(C)OC(=O)N1CCCC1C(=O)Oc1cccc2oc(=O)[nH]c12 (stereo not drawn) | 101 | 51.5 | 5.76

Source: ChEMBL document CHEMBL2346634, “Synthesis and biological activity of 4-substituted benzoxazolone derivatives as a new class of sEH inhibitors with high anti-inflammatory activity in vivo” (Bioorg Med Chem Lett, 2013)
